The subject of data set [1] is mice. As to the kind of experiment: Elevated plus-maze test (EPM). Format: in vivo, mouse. The conditions noted are these: 60 min before the test. The method, then: The experiments were carried out, in the Experimental Medicine Center of Medical University of Lublin, on six-week-old naive male Swiss mice, weighing 24–30 g. The mice were housed in cages, five individuals per cage in an environmentally controlled rooms (ambient temperature 22 ± 1 °C; relative humidity 50–60%; 12 h light/dark cycle, lights on at 8:00). Standard laboratory food(LSM-Agropol-Motycz, Lublin, Poland) and filtered water were available ad libitum. All the experimental procedures were carried out, according to the National Institute of Health Guidelines for the Care and Use of Laboratory Animals and to the European Community Council Directive for the Care and Use of Laboratory Animals of 22 September 2010 (2010/63/EU) and approved by the Local Ethics Committee for Animal Experimentation in Lublin. The investigated compounds (Norbo-4, Norbo-8, Norbo-10, Norbo-14, Norbo-18 and Norbo-20) in all tests were administered intraperitoneally (i.p.), dissolved in dimethyl sulfoxide (DMSO, final concentration of 0.1%) and then diluted by aqueous solution of 0.5% methylcellulose (tylose) and injected 60 min before the tests. […] All compounds were given in a volume of 10 mL/kg to mice. The control animals received an equivalent volume of the solvent at the respective time before the tests. All the experiments were conducted in the light phase between 09.00 a.m. and 14.00 p.m. The experiments were performed by an observer unaware of the treatment administered. The EPM studies were carried out on mice according to the method of Lister. The EPM apparatus was made of plexiglass and consisted of two open (30 × 5 cm) and two enclosed (30 × 5 × 15 cm) arms. The arms extended from a central platform of 5 × 5 cm. The apparatus was mounted on a plexiglass base, raising it 38.5 cm above the floor, and illuminated by a red light. The test consisted of placing a mouse in the center of the apparatus (facing an open arm) and allowing it to freely explore. The number of entries into the open arms and the time spent in these arms were scored for a 5 min test period. An entry was defined as placing all four paws within the boundaries of the arm. The following measures were obtained from the test: the total number of arm entries; the percentage of arm entries into the open arms; and the time spent in the open arms expressed as a percentage of the time spent in both the open and closed arms. Anxiolytic activity was indicated by increases in the time spent in open arms and in the number of open arm entries. The total number of entries into either type of arm was used additionally as a measure of overall motor activity.

The test system of data set [2] is mice. As to the kind of experiment: Rota-rod test (motor coordination). In kind it is in vivo, mouse. The conditions noted are these: 30 mg/kg i.p., 60 min before the test. The method, then:
(§1) The experiments were carried out, in the Experimental Medicine Center of Medical University of Lublin, on six-week-old naive male Swiss mice, weighing 24–30 g. The mice were housed in cages, five individuals per cage in an environmentally controlled rooms (ambient temperature 22 ± 1 °C; relative humidity 50–60%; 12 h light/dark cycle, lights on at 8:00). Standard laboratory food(LSM-Agropol-Motycz, Lublin, Poland) and filtered water were available ad libitum. All the experimental procedures were carried out, according to the National Institute of Health Guidelines for the Care and Use of Laboratory Animals and to the European Community Council Directive for the Care and Use of Laboratory Animals of 22 September 2010 (2010/63/EU) and approved by the Local Ethics Committee for Animal Experimentation in Lublin. The investigated compounds (Norbo-4, Norbo-8, Norbo-10, Norbo-14, Norbo-18 and Norbo-20) in all tests were administered intraperitoneally (i.p.), dissolved in dimethyl sulfoxide (DMSO, final concentration of 0.1%) and then diluted by aqueous solution of 0.5% methylcellulose (tylose) and injected 60 min before the tests. […] All compounds were given in a volume of 10 mL/kg to mice. The control animals received an equivalent volume of the solvent at the respective time before the tests. All the experiments were conducted in the light phase between 09.00 a.m. and 14.00 p.m. The experiments were performed by an observer unaware of the treatment administered. The effects of investigated compounds on motor coordination were evaluated in the rota-rod and chimney tests. In the first test, motor impairments were measured, defined as the inability to keep balance on a rotating rod (at constant speed of 18 rpm) for 1 min. In the second test, motor impairments were assessed by mouse inability to climb up the tube backwards (3 cm in inner diameter, 25 cm long) within 60 s. Before the tests, the animals were trained once a day for 3 days. The animals able to stay on the rotating rod or to leave the chimney for 60 s were approved for experiments.

Another data set addresses 5-HT2A receptor (Rattus norvegicus, UniProt P14842). As to the kind of experiment: 5-HT2A competition binding assay ([3H]ketanserin, frontal cortex homogenates). The conditions noted are these: read-out: 5-HT2A Ki (95% CI).
Data set [3] relates to mice. Description: Forced swim test (FST, Porsolt's test). In kind it is in vivo, mouse. The conditions noted are these: 60 min before the test. As for the experimental part:
as §1, with “The experiment was carried out according to the method” for “The effects”, “of Porsolt et al.. Mice were individually placed in a glass cylinder (25 cm high; 10 cm in diameter) containing water maintained at 23–25 °C, and were left there for 6 min. The total duration of immobility was recorded during the last 4 min of a 6-min test session. A mouse was regarded as immobile when it remained floating” for “of investigated compounds”, “on” for “on motor coordination were evaluated in”, “the water, making only small movements” for “the rota-rod and chimney tests. In the first test, motor impairments were measured, defined as the inability”, “keep its head above” for “keep balance on a rotating rod (at constant speed of 18 rpm) for 1 min. In”, “the water.” for “the second test, motor impairments were assessed by mouse inability to climb up the tube backwards (3 cm in inner diameter, 25 cm long) within 60 s. Before the tests, the animals were trained once a day for 3 days. The animals able to stay on the rotating rod or to leave the chimney for 60 s were approved for experiments.”

“Also recorded” adds a separate entry of the source.

Sequence of 5-HT2A receptor (P14842 whole entry): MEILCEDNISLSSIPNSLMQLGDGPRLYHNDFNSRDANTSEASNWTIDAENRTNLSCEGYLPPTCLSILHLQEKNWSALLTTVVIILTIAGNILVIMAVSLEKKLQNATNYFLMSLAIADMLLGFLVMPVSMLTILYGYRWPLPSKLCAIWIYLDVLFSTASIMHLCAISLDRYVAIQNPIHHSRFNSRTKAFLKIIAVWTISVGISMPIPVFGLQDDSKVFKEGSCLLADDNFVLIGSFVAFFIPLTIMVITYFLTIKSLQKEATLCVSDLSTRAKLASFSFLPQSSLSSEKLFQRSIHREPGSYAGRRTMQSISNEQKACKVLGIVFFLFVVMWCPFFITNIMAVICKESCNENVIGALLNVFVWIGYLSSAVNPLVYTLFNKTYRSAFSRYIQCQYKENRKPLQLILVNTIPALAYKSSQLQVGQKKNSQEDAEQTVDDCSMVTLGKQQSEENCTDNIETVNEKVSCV

For `Cc1cccc(N2CCN(CCCNC(=O)C3CC4C=CC3C4)CC2)c1C` (stereo not drawn) [Norbo-4, endo-N-(3-(4-(2,3-dimethylphenyl)piperazin-1-yl)propyl)bicyclo[2.2.1]hept-5-ene-2-carboxamide], the “percentage of time spent in open arms (EPM)” value in the data set on mice [1] (3.75 mg/kg i.p.) and in the data set with mice [1] (15 mg/kg i.p.) was “significant increase in time spent in open arms; also recorded: increased the percentage of open arm exploration time” each time. Besides, in the data set with mice [1] (15 mg/kg i.p.), the “percentage of the open arm entries (EPM)” value is “increase the percentage of open arm entries”. Besides, the time on rota-rod result with mice [2] is “decreased also time on rota-rod; also recorded: impaired motor coordination”. For the same compound, the inhibitory constant (Ki) on 5-HT2A receptor came to 33.3 nM. In addition, the “immobility time in FST” value with mice [3] (3.75 mg/kg i.p.) was “significant reduction in immobility time; also recorded: significant reduction of immobility time”; with mice [3] (15 mg/kg i.p.), “significant reduction in immobility time; also recorded: significant reduction of immobility time”; with mice [3] (30 mg/kg i.p.) it was “significant reduction in immobility time”.

The values above are taken from paper PMC9572521, “Synthesis, Docking Studies and Pharmacological Evaluation of Serotoninergic Ligands Containing a 5-Norbornene-2-Carboxamide Nucleus” (Molecules, 2022).
